The numbers were not newly measured in patent publication US20200178572A1 (priority 2017, published 2020), which cites them from elsewhere.

SMILES strings stand for the structures.

The conditions of the series: in vivo.

Turning to `CC1=CC[C@H]2C[C@@H]1C2(C)C` [α-Pinene, (1S,5S)-2,6,6-Trimethylbicyclo[3.1.1]hept-2-ene], the human pulmonary uptake was 60%.
